Experiments:
[1] = cited from earlier work
[2] = Detergency against keratotic plugs after washing with water (collapse state); design: species or system human; conditions: keratotic plugs kept in contact with water for 1 minute after contact with sample
Text: (§1) The penetration was relatively evaluated by 11 criteria from the state 1 “the sample hardly penetrated into the keratotic plug” to the state 11 “the sample penetrated to the center of the keratotic plug”. The collapsibility by the detergency against keratotic plugs was relatively evaluated by 11 criteria from the state 1 “almost no change is observed in the external appearance of the keratotic plug” to the state 11 “peeling or separation is observed in the area from the surface layer to the central portion of the keratotic plug (the initial appearance of the keratotic plug is not retained)”.
After one minute from the contact of the keratotic plugs with the sample, KimWipes (registered trademark) was brought into contact with an edge of the cover glass to remove the sample under the cover glass. Subsequently, 0.05 mL of water was dropwise added to an edge of the cover glass. The sample dropwise added with water was recorded with the digital microscope, and the collapse state of the keratotic plugs was evaluated after one minute from the contact of the keratotic plugs with water according to the criteria for evaluating collapsibility of the keratotic plugs. The results of the evaluation are shown in the column “Detergency against keratotic plugs (after washing with water)” in Table. The measurements were performed at 25° C.

[3] = Detergency against keratotic plugs: penetration of the sample into keratotic plugs; design: species or system human; conditions: keratotic plugs kept in contact with sample for 1 minute; results of Table 1
Description: (§2) Keratotic plugs in the nasal region were removed with “Biore Nose Pack (manufactured by Kao Corporation)”, the resulting keratotic plugs on the pack were gently taken out with tweezers.
(§3) The resulting keratotic plugs were placed on a slide glass and were covered with a cover glass, and 0.05 mL of a sample was dropwise added to an edge of the cover glass. Consequently, the sample entered into the gap between the slide glass and the cover glass by capillary phenomenon and was brought into contact with the keratotic plugs. The contact of the keratotic plugs with the sample was recorded with a digital microscope (VHX-5000, manufactured by Keyence Corporation, magnification: ×150), and the penetration of the sample into the keratotic plugs and the collapse state of the keratotic plugs were evaluated after one minute from the contact of the keratotic plugs with the sample. The results of each evaluation are shown in the columns “Detergency against keratotic plugs (penetration)” and “Detergency against keratotic plugs (during cleansing)” in Tables. The measurements were performed at 25° C.
as §1

[4] = Detergency against keratotic plugs during cleansing (collapse state); design: species or system human; conditions: keratotic plugs kept in contact with sample for 1 minute; results of Table 1
Description: as §2, §3, §1

[5] = tested on: insoluble protein (zein protein); experiment: Effect of suppressing protein aggregation (precipitation of insoluble protein); conditions: results of Table 1
Description: Thirty milliliters of a sample and 0.06 g of an insoluble protein (zein protein) were placed in a 35-mL standard glass bottle, and the concentration of the insoluble protein was adjusted to 0.2 mass % (test sample). Separately, a standard sample was prepared by using water instead of the sample and adjusting the concentration of the insoluble protein to 0.2 mass %. Subsequently, the standard glass bottles were sufficiently shaken and stirred up and down (shake width: 15 cm, 20 times at a shake rate of 5 times per 3 seconds) in a thermostatic chamber of 25° C. and were left to stand for 3 minutes. The precipitation state of the insoluble protein was then visually verified, and the ratio of the amount of the precipitated standard sample to the amount of the precipitated test sample (the height of the precipitate in each standard glass bottle was measured as the precipitation amount), (precipitation amount of standard sample)/(precipitation amount of test sample), was calculated. A higher ratio indicates a higher effect of suppressing protein aggregation.

Row | Molecule | solubility in water (in words) [1] | collapse of keratotic plugs on contact with water after the sample (in words) [2] | penetration into keratotic plugs (in words) [3] | collapse of keratotic plugs on contact with sample (in words) [4] | action on proteins (in words) [5]
1 | CC(C)(N)CO [AMP, 2-amino-2-methyl-1-propanol] | readily dissolved in water | accelerating the collapse | penetrated into keratotic plugs | – | –
2 | CC(N)(CO)CO [AMPD, 2-amino-2-methyl-1,3-propanediol] | – | accelerating the collapse | penetrated into keratotic plugs | – | –
3 | NC(CO)(CO)CO [Tris, 2-amino-2-hydroxymethyl-1,3-propanediol] | readily dissolved in water | accelerating the collapse | penetrated into keratotic plugs | – | –
4 | O=P([O-])([O-])O.[Na+].[Na+] [disodium hydrogen phosphate] | – | did not progress | hardly penetrated into keratotic plugs | did not progress | –
5 | O=C([O-])O.[Na+] [sodium hydrogen carbonate] | – | did not progress | hardly penetrated into keratotic plugs | did not progress | –
6 | O=P([O-])([O-])[O-].[Na+].[Na+].[Na+] [trisodium phosphate] | – | did not progress | hardly penetrated into keratotic plugs | did not progress | –
7 | sodium polyoxyethylene (2) lauryl ether sulfate [POE (2) sodium lauryl sulfate] | – | – | hardly penetrated into the keratotic plugs | did not progress | dissolve the proteins

From patent publication US11406576B2, “Method for removing keratotic plugs” (KAO CORPORATION, priority 2017, dated 2022)
